The record followed here is patent US9630001B2, “Methods for modulating osteochondral development using bioelectric stimulation” (MedRelief Inc., priority 2005, dated 2017).

The subject of the assay is Normal human cartilage cells (HCC). As to the kind of experiment: Cell growth assessed by DNA content of the cell layer. The following applies: 0.1% serum, PEMF 40 microAmps once every 24 hours, measured after 72 hours, L-NAME co-administered. In kind it is cell-based. As to the method:
Normal human cartilage cells (HCC; CAMBREX®, Walkersville, Md.) were plated in rectangular cell chambers in monolayer. PEMF application was capacitively coupled through a niobium electrode bridge system which allowed a time varying current to flow uniformly through the chambers. A pulse-burst B-type signal as described herein is composed of a 10-msec burst of asymmetric rectangular pulses, 200/28 microseconds in width, repeated at 15 Hz. The PEMF signal was applied for 30 minutes per treatment. Cell growth was assessed by DNA content of the cell layer. Nitric oxide (NO) content of culture media was assessed by the Griess reaction using an assay kit from INVITROGEN INC.® (Carlsbad, Calif.). Results are expressed as micromoles of NO per cell number as assessed by DNA content of the cell layer.

`COC(=O)[C@@H](N)CCCNC(=N)N[N+](=O)[O-]` [L-NAME, N(G)-nitro-1-arginine methyl ester]: the “effect on PEMF-increased cell number (DNA, FIG. 7)” value was “attenuated”.
